Reference: patent EP1007530B1, “6-O-SUBSTITUTED ERYTHROMYCIN COMPOUNDS AND METHOD FOR MAKING SAME” (ABBOTT LABORATORIES, priority 1996, dated 1997)

How the values were obtained:
Experiment in all cases: In vitro assay of antibacterial activity (agar dilution MIC)
Assay type in all cases: cell-based
[1] = test system: Candida albicans CCH 442; settings: BHI agar, 35-37 °C, 20 to 24 hours, unit assumed
Description: (§1) Representative compounds of the present invention were assayed in vitro for antibacterial activity as follows: Twelve petri dishes containing successive aqueous dilutions of the test compound mixed with 10 mL of sterilized Brain Heart Infusion (BHI) agar (Difco 0418-01-5) were prepared. Each plate was inoculated with 1:100 (or 1:10 for slow-growing strains, such as Micrococcus and Streptococcus) dilutions of up to 32 different microorganisms, using a Steers replicator block. The inoculated plates were incubated at 35-37 °C for 20 to 24 hours, In addition, a control plate, using BHI agar containing no test compound, was prepared and incubated at the beginning and end of each test.
(§2) An additional plate containing a compound having known susceptibility patterns for the organisms being tested and belonging to the same antibiotic class as the test compound was also prepared and incubated as a further control, as well as to provide test-to-test comparability. Erythromycin A was used for this purpose.
(§3) After incubation, each plate was visually inspected. The minimum inhibitory concentration (MIC) was defined as the lowest concentration of drug yielding no growth, a slight haze, or sparsely isolated colonies on the inoculum spot as compared to the growth control. […]

[2] = test system: Enterobacter aerogenes ATCC 13048; settings: BHI agar, 35-37 °C, 20 to 24 hours, unit assumed
Description: as §1, §2, §3

[3] = test system: Enterococcus faecium ATCC 8043; settings: BHI agar, 35-37 °C, 20 to 24 hours, unit assumed
Description: as §1, §2, §3

[4] = test system: Escherichia coli DC-2; settings: BHI agar, 35-37 °C, 20 to 24 hours, unit assumed
Description: as §1, §2, §3

[5] = test system: Escherichia coli H560; settings: BHI agar, 35-37 °C, 20 to 24 hours, unit assumed
Description: as §1, §2, §3

[6] = test system: Escherichia coli JUHL; settings: BHI agar, 35-37 °C, 20 to 24 hours, in µg/mL (unit assumed)
Description: as §1, §2, §3

[7] = test system: Escherichia coli KNK 437; settings: BHI agar, 35-37 °C, 20 to 24 hours, unit assumed
Description: as §1, §2, §3

[8] = test system: Escherichia coli SS; settings: BHI agar, 35-37 °C, 20 to 24 hours, unit assumed
Description: as §1, §2, §3

[9] = test system: Klebsiella pneumoniae ATCC 8045; settings: BHI agar, 35-37 °C, 20 to 24 hours, unit assumed
Description: as §1, §2, §3

[10] = test system: Micrococcus luteus ATCC 4698; settings: BHI agar, 35-37 °C, 20 to 24 hours, unit assumed
Description: as §1, §2, §3

[11] = test system: Micrococcus luteus ATCC 9341; settings: BHI agar, 35-37 °C, 20 to 24 hours, unit assumed
Description: as §1, §2, §3

[12] = test system: Mycobacterium smegmatis ATCC 114; settings: BHI agar, 35-37 °C, 20 to 24 hours, unit assumed
Description: as §1, §2, §3

[13] = test system: Nocarrdia asteroides ATCC 9970; settings: BHI agar, 35-37 °C, 20 to 24 hours, unit assumed
Description: as §1, §2, §3

[14] = test system: Providencia struartii CMX 640; settings: BHI agar, 35-37 °C, 20 to 24 hours, unit assumed
Description: as §1, §2, §3

[15] = test system: Pseudomonas aeruginosa 5007; settings: BHI agar, 35-37 °C, 20 to 24 hours, unit assumed
Description: as §1, §2, §3

[16] = test system: Pseudomonas aeruginosa BMH10; settings: BHI agar, 35-37 °C, 20 to 24 hours, in µg/mL (unit assumed)
Description: as §1, §2, §3

[17] = test system: Pseudomonas aeruginosa DPHD-2862; settings: BHI agar, 35-37 °C, 20 to 24 hours, unit assumed
Description: as §1, §2, §3

[18] = test system: Pseudomonas aeruginosa DPHD-5263; settings: BHI agar, 35-37 °C, 20 to 24 hours, in µg/mL (unit assumed)
Description: as §1, §2, §3

[19] = test system: Pseudomonas aeruginosa K799/61; settings: BHI agar, 35-37 °C, 20 to 24 hours, unit assumed
Description: as §1, §2, §3

[20] = test system: Pseudomonas aeruginosa K799/WT; settings: BHI agar, 35-37 °C, 20 to 24 hours, unit assumed
Description: as §1, §2, §3

[21] = test system: Pseudomonas capacia 2961; settings: BHI agar, 35-37 °C, 20 to 24 hours, in µg/mL (unit assumed)
Description: as §1, §2, §3

[22] = test system: Staphylococcus aureus 1775; settings: BHI agar, 35-37 °C, 20 to 24 hours, unit assumed
Description: as §1, §2, §3

[23] = test system: Staphylococcus aureus A-5278; settings: BHI agar, 35-37 °C, 20 to 24 hours, unit assumed
Description: as §1, §2, §3

[24] = test system: Staphylococcus aureus ATCC 6538P; settings: BHI agar, 35-37 °C, 20 to 24 hours, unit assumed
Description: as §1, §2, §3

[25] = test system: Staphylococcus aureus CMX 553; settings: BHI agar, 35-37 °C, 20 to 24 hours, unit assumed
Description: as §1, §2, §3

[26] = test system: Staphylococcus aureus CMX 642A; settings: BHI agar, 35-37 °C, 20 to 24 hours, unit assumed
Description: as §1, §2, §3

[27] = test system: Staphylococcus aureus NCTC10649M; settings: BHI agar, 35-37 °C, 20 to 24 hours, unit assumed
Description: as §1, §2, §3

[28] = test system: Staphylococcus epidermidis 3519; settings: BHI agar, 35-37 °C, 20 to 24 hours, unit assumed
Description: as §1, §2, §3

[29] = test system: Streptococcus agalactiae CMX 508; settings: BHI agar, 35-37 °C, 20 to 24 hours, unit assumed
Description: as §1, §2, §3

[30] = test system: Streptococcus bovis A-5169; settings: BHI agar, 35-37 °C, 20 to 24 hours, unit assumed
Description: as §1, §2, §3

[31] = test system: Streptococcus pyogenes 930; settings: BHI agar, 35-37 °C, 20 to 24 hours, unit assumed
Description: as §1, §2, §3

[32] = test system: Streptococcus pyogenes EES61; settings: BHI agar, 35-37 °C, 20 to 24 hours, unit assumed
Description: as §1, §2, §3

[33] = test system: Streptococcus pyogenes PIU 2548; settings: BHI agar, 35-37 °C, 20 to 24 hours, unit assumed
Description: as §1, §2, §3

[34] = test system: Actinetobacter calcoaceticus CMX 669; settings: BHI agar, 35-37 °C, 20 to 24 hours, unit assumed
Description: as §1
(§4) An additional plate containing a compound having known susceptibility patterns for the organisms being tested and belonging to the same antibiotic class as the test compound was also prepared and incubated as a further control, as well as to provide test-to-test comparability.
as §3

[35] = test system: Staphylococcus aureus A5177; settings: BHI agar, 35-37 °C, 20 to 24 hours, unit assumed
Description: as §1, §4, §3

Compound | MIC [1] [µg/mL] | MIC [2] [µg/mL] | MIC [3] [µg/mL] | MIC [4] [µg/mL] | MIC [5] [µg/mL] | MIC [6] | MIC [7] [µg/mL] | MIC [8] [µg/mL] | MIC [9] [µg/mL] | MIC [11] [µg/mL] | MIC [12] [µg/mL] | MIC [13] [µg/mL] | MIC [14] [µg/mL] | MIC [15] [µg/mL] | MIC [16] | MIC [17] [µg/mL] | MIC [18] | MIC [20] [µg/mL] | MIC [21] | MIC [22] [µg/mL] | further results
CC[C@H]1OC(=O)[C@H](C)[C@@H](O[C@H]2C[C@@](C)(OC)[C@@H](O)[C@H](C)O2)[C@H](C)[C@@H](O[C@@H]2O[C@H](C)C[C@H](N(C)C)[C@H]2O)[C@](C)(OCC=O)C[C@@H](C)C(=O)[C@H](C)[C@@H](O)[C@]1(C)O [Example 8, Compound of Formula (X): X is =O, R is 2-oxoethyl] | > 100 | > 100 | 0.39 | > 100 | 50 | 100 | > 100 | 1.56 | > 100 | 0.1 | 6.2 | 0.39 | > 100 | > 100 | > 100 | > 100 | > 100 | > 100 | > 100 | > 100 | MIC [10]: 1.56 µg/mL; MIC [19]: 3.1 µg/mL; MIC [23]: > 100 µg/mL; MIC [24]: 0.78 µg/mL; MIC [25]: 0.78 µg/mL; MIC [26]: 0.78 µg/mL; MIC [27]: 0.78 µg/mL; MIC [28]: 0.78 µg/mL; MIC [29]: 0.39 µg/mL; MIC [30]: 0.2 µg/mL; MIC [31]: > 100 µg/mL; MIC [32]: 0.1 µg/mL; MIC [33]: 25 µg/mL; MIC [34]: 50 µg/mL; MIC [35]: 12.5 µg/mL
CC[C@H]1OC(=O)[C@H](C)[C@@H](O[C@H]2C[C@@](C)(OC)[C@@H](O)[C@H](C)O2)[C@H](C)[C@@H](O[C@@H]2O[C@H](C)C[C@H](N(C)C)[C@H]2O)[C@](C)(OCC(O)CN=[N+]=[N-])C[C@@H](C)C(=O)[C@H](C)[C@@H](O)[C@]1(C)O (some centres unmarked) [Example 11, Compound of Formula (X): X is =O, R is -CH2-CHOH-CH2-N3] | > 100 | > 100 | 0.39 | > 100 | 50 | 100 | > 100 | 1.56 | > 100 | 0.05 | 0.39 | 0.1 | > 100 | > 100 | > 100 | > 100 | > 100 | > 100 | > 100 | > 100 | MIC [23]: > 100 µg/mL; MIC [24]: 0.78 µg/mL; MIC [25]: 0.78 µg/mL; MIC [26]: 1.56 µg/mL; MIC [27]: 0.78 µg/mL; MIC [28]: 0.78 µg/mL; MIC [29]: 0.05 µg/mL; MIC [30]: 0.2 µg/mL; MIC [31]: > 100 µg/mL; MIC [32]: 0.05 µg/mL; MIC [33]: 25 µg/mL; MIC [34]: 25 µg/mL; MIC [35]: 6.2 µg/mL
